Laboratory results: ChEMBL document CHEMBL5052835, “Slc26a3 inhibitors and use thereof” (2021)
The source made the active and inactive calls. No cut-off for these calls is given here.

How the values were obtained:
Chloride anion exchanger = target: T1, Chloride anion exchanger (Mus musculus, UniProt Q9WVC8); experiment: Inhibition of mouse Slc26a3 transfected in rat FRT cells preincubated with forskolin, 8-Br-cGMP and PMA and measured by fluorescence assay; assay type: cell-based
T1 sequence (Q9WVC8 whole entry): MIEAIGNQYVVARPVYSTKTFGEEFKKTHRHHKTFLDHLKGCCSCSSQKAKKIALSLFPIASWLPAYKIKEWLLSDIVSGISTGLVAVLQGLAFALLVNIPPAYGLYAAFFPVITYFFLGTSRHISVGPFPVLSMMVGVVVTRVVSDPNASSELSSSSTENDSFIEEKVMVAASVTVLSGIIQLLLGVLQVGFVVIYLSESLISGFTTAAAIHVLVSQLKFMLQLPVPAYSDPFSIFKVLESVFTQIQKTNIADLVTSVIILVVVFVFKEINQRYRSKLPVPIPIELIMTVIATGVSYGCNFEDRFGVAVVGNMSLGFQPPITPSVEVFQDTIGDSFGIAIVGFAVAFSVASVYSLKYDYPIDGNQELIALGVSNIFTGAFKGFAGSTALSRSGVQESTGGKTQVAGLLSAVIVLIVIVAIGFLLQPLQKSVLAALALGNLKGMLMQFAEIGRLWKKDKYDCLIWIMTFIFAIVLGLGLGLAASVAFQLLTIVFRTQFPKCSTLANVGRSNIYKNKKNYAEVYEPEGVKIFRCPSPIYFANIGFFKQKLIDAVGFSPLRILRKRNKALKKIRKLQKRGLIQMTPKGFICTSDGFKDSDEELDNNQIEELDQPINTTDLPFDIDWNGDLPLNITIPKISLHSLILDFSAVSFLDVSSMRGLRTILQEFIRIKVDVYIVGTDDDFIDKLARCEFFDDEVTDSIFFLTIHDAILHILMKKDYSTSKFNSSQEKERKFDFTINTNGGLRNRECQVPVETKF

[1] = Toxicity in loperamide-induced constipation model of female CD-1 mouse at 10 mg/kg, po assessed as effect on stool parameters; assay type: organism-based; conditions: in vivo
Mus musculus [2] = experiment: In vivo inhibition of slc26a3 in loperamide-induced constipation model of female CD-1 mouse at 1 to 10 mg/kg, po assessed as reduction in stool water content; assay type: functional, organism-based; conditions: dose 1-10 mg/kg
Mus musculus [3] = organism: Mus musculus; experiment: Inhibition of oxalate absorption in high oxalate and low calcium diet-induced oxalate nephropathy model of mouse assessed as normalization of creatinine level; assay type: functional, organism-based
Mus musculus [4] = experiment: In vivo inhibition of slc26a3 in loperamide-induced constipation model of female CD-1 mouse at 1 to 10 mg/kg, po assessed as reduction in pellet number; assay type: functional, organism-based; conditions: dose 1-10 mg/kg
[5] = Toxicity in loperamide-induced constipation model of female CD-1 mouse at 10 mg/kg, po assessed as diarrhea; assay type: organism-based; conditions: in vivo
Mus musculus [6] = experiment: In vivo inhibition of slc26a3 in loperamide-induced constipation model of female CD-1 mouse at 1 to 10 mg/kg, po assessed as reduction in stool weight; assay type: functional, organism-based; conditions: dose 1-10 mg/kg
Mus musculus [7] = experiment: Inhibition of oxalate absorption in sodium oxalate-induced acute hyperoxaluria mouse model at 10 mg/kg, ip; assay type: functional, organism-based
Mus musculus [8] = experiment: In vivo inhibition of slc26a3 in loperamide-induced constipation model of female CD-1 mouse at 5 mg/kg, po assessed as reduction in stool water content; assay type: functional, organism-based
Mus musculus [9] = experiment: In vivo inhibition of slc26a3 in loperamide-induced constipation model of female CD-1 mouse at 5 mg/kg, po assessed as reduction in stool weight; assay type: functional, organism-based
Mus musculus [10] = experiment: In vivo inhibition of slc26a3 in loperamide-induced constipation model of female CD-1 mouse at 5 mg/kg, po assessed as reduction in pellet number; assay type: functional, organism-based
Mus musculus [11] = experiment: In vivo inhibition of […] in loperamide-induced constipation model of female CD-1 mouse at 5 mg/kg, po assessed as reduction in pellet number; assay type: functional, organism-based
Colon = experiment: Inhibition of fluid absorption in distal colonic loop isolated from female CD-1 mouse at 10 uM assessed as effect on reduction in loop weight/length ratio; assay type: functional, tissue-based
Mus musculus [12] = experiment: In vivo inhibition of […] in loperamide-induced constipation model of female CD-1 mouse at 5 mg/kg, po assessed as reduction in stool water content; assay type: functional, organism-based
Mus musculus [13] = experiment: In vivo inhibition of […] in loperamide-induced constipation model of female CD-1 mouse at 5 mg/kg, po assessed as reduction in stool weight; assay type: functional, organism-based

Row | IC50 (Chloride anion exchanger; read-out: IC50) [µM] | Compound | other results
1 | 1.7 | CCOc1ccc(-n2ccnc2SCC(=O)Nc2ccc(Cl)cc2)cc1 | –
2 | 12 | O=C(CSc1nccn1-c1ccc(Cl)cc1)Nc1cccc(C(F)(F)F)c1 | –
3 | 7.4 | O=C(CSc1nccn1-c1ccc(Cl)cc1)Nc1ccc([N+](=O)[O-])cc1 | –
4 | 5.7 | CCc1ccc(NC(=O)CSc2nccn2-c2ccc(Cl)cc2)cc1 | –
5 | 3.5 | CCc1ccc(NC(=O)CSc2nccn2-c2cccc(C)c2C)cc1 | –
6 | 4.6 | Cc1cc(C)cc(-n2ccnc2SCC(=O)Nc2ccc(Cl)cc2)c1 | –
7 | 1.9 | COc1ccc(-n2ccnc2SCC(=O)Nc2ccc(Br)cc2)cc1 | –
8 | 2.1 | Cc1cc(C)cc(-n2ccnc2SCC(=O)Nc2ccc(C)c(Cl)c2)c1 | –
9 | 1.7 | O=C(CSc1nccn1-c1ccc(Cl)cc1)Nc1ccc(Cl)cc1 | –
10 | 1.8 | O=C(CSc1nccn1-c1ccc(Cl)cc1)Nc1ccc(Br)cc1 | –
11 | 0.84 | Cc1c(CC(=O)O)c(=O)oc2c(C)c(OCc3cccc(F)c3)ccc12 | –
12 | 1.5 | Cc1ccc(NC(=O)CSc2nccn2-c2ccccc2)cc1Cl | –
13 | 2.5 | Cc1cc(C)cc(-n2ccnc2SCC(=O)Nc2ccc(Cl)c(Cl)c2)c1 | –
14 | 6.5 | CCc1ccc(NC(=O)CSc2nccn2-c2ccc(OC)cc2)cc1 | –

Continued, molecule first:

Row | Compound | IC50 (Chloride anion exchanger; read-out: IC50) [µM] | other results
15 | Cc1cc(C)cc(COc2ccc3c(C)c(CC(=O)O)c(=O)oc3c2C)c1 | 0.54 | –
16 | COC(=O)CCc1c(C)c2ccc(OCc3cccc(OC)c3)c(C)c2oc1=O | – | IC50 (Chloride anion exchanger; frt): Not Active
17 | O=C(CSc1nccn1-c1ccc(F)cc1)Nc1ccc(Cl)c(Cl)c1 | 2.6 | –
18 | O=C(CSc1nccn1-c1cccc(Cl)c1)Nc1ccc(Cl)c(Cl)c1 | 2.9 | –
19 | Cc1c(CC(=O)O)c(=O)oc2c(C)c(OCc3cccc(I)c3)ccc12 | – | Activity [1]: Non-Toxic; inhibition (Mus musculus [2]): Active; inhibition (Mus musculus [3]): Active; inhibition (Mus musculus [4]): Active; Activity [5]: Non-Toxic; inhibition (Mus musculus [6]): Active; inhibition (Mus musculus [7]): Active
20 | Cc1c(CC(=O)O)c(=O)oc2c(C)c(OCc3cccc(C(F)(F)F)c3)ccc12 | – | inhibition (Mus musculus [8]): Active; inhibition (Mus musculus [9]): Active; inhibition (Mus musculus [10]): Active
21 | Cc1ccc(NC(=O)CSc2nccn2-c2ccc(Cl)cc2)cc1 | 1.6 | –
22 | Cc1cccc(COc2ccc3c(C)c(CC(=O)O)c(=O)oc3c2C)c1 | 0.48 | –
23 | Cc1cccc(-n2ccnc2SCC(=O)Nc2ccc(Br)cc2)c1 | 6.4 | –
24 | CN1Cc2c(Cl)cc(Cl)cc2[C@H](c2cccc(S(=O)(=O)NCCOCCOCCNC(=O)NCCCCNC(=O)NCCOCCOCCNS(=O)(=O)c3cccc([C@@H]4CN(C)Cc5c(Cl)cc(Cl)cc54)c3)c2)C1 | – | inhibition (Mus musculus [11]): Active; inhibition (Colon): inactive; inhibition (Mus musculus [12]): Active; inhibition (Mus musculus [13]): Active
25 | COC(=O)CCc1c(C)c2ccc(OCc3ccc(C(C)(C)C)cc3)c(C)c2oc1=O | – | IC50 (Chloride anion exchanger; frt): Not Active
26 | Cc1c(CC(=O)O)c(=O)oc2c(C)c(OCc3cccc(Cl)c3)ccc12 | 0.2 | –
27 | Cc1ccc(NC(=O)CSc2nccn2-c2ccc(Cl)cc2)cc1Cl | 11 | –
28 | Cc1c(CC(=O)O)c(=O)oc2c(C)c(OCc3ccc(C(C)(C)C)cc3)ccc12 | 4.6 | –
29 | CCCCCOc1ccc2c(C)c(CC(=O)O)c(=O)oc2c1C | 1.2 | –
30 | Cc1c(CC(=O)O)c(=O)oc2c(C)c(OCc3ccccc3F)ccc12 | 0.51 | –
31 | Cc1c(CCC(=O)O)c(=O)oc2c(C)c(OCc3ccc(F)cc3)ccc12 | – | IC50 (Chloride anion exchanger; frt): Not Active
32 | COc1cccc(-n2ccnc2SCC(=O)Nc2ccc(C)cc2)c1 | 7.1 | –
33 | O=C(CSc1nccn1-c1cccc(Cl)c1)Nc1ccc(Cl)cc1 | 2.2 | –
34 | Cc1cccc(-n2ccnc2SCC(=O)Nc2ccc(Cl)cc2)c1 | 6.2 | –
35 | Cc1ccc2ccccc2c1COc1ccc2c(C)c(CCC(=O)O)c(=O)oc2c1C | – | IC50 (Chloride anion exchanger; frt): Not Active
